Measured values reported in article PMC5187951 (International Journal of Molecular Sciences, 2016).

Key:
[1] = system: carrageenan induced paw edema in mice; experiment: Carrageenan induced paw edema in mice; format: in vivo; conditions: 20 mg/kg p.o.; for Inflammation at 1 h (paw thickness), Mean ± SEM / Percent inhibition of paw edema at 1 h: 1 h after carrageenan; for Percent inhibition of paw edema at 1 h / Percent inhibition of paw edema at 2 h / Percent inhibition of paw edema at 3 h / Percent inhibition of paw edema at 4 h: vs control; for Inflammation at 2 h (paw thickness), Mean ± SEM / Percent inhibition of paw edema at 2 h: 2 h after carrageenan; for Inflammation at 3 h (paw thickness), Mean ± SEM / Percent inhibition of paw edema at 3 h: 3 h after carrageenan; for Inflammation at 4 h (paw thickness), Mean ± SEM / Percent inhibition of paw edema at 4 h: 4 h after carrageenan
Description: Anti-inflammatory activity of mutual prodrugs 5a–c was determined by following the already reported method by slight modification against carrageenan induced paw edema in mice. The animals were distributed into 5 groups each having five mice. The mice used for the experiment were kept on fasting for 24 h before the starting of experiment. […] The paw volume was measured at 0, 1, 2, 3 and 4 h after the administration of carrageenan by using vernier caliper. (1) Percent inhibition (%) = 100 (1−X/Y) where X = mean increase in paw thickness of treated mice; and Y = mean increase in paw thickness of control mice.

[2] = system: egg albumin induced paw edema in mice; experiment: Egg albumin induced inflammation (paw edema) in mice; format: in vivo; conditions: 20 mg/kg p.o.
Description: Anti-inflammatory potential of synthesized prodrugs 5a–c against egg albumin induced inflammation was also determined for further verification by following the previously reported method. The animals were divided into five groups, each group having five animals. The animals were kept on fasting for 24 h before the beginning of the experiment.

[3] = system: acetic acid induced writhing in mice; experiment: Acetic acid induced writhing in mice; format: in vivo; conditions: 20 mg/kg p.o.; for No. of Writhing, Mean ± SEM: 0.6% acetic acid, counted up to 15 min; for Percentage inhibition of writhing: vs control
Description: Koster et al., reported method was adopted for the determination of analgesic activity of the mutual prodrugs 5a–c. The mice were divided in to five groups each group consists of five animals. […] For induction of writhings, acetic acid solution (0.6% in normal saline) was given to every mouse post 30 min of treatment. After 5 min of injection of this solution, the number of writhings was counted up to 15 min.

[4] = system: formalin induced licking in mice; experiment: Formalin induced licking in mice; format: in vivo; conditions: 20 mg/kg p.o.; for Lickings Time, Mean ± SEM: formalin 2.5%, observed 30 min; for Percentage inhibition of licking time: vs control
Description: Formalin induced licking in mice was also used to determine analgesic activity of prodrugs 5a–c for further verification. The animals were distributed in to five groups having five mice in each group.

[5] = system: yeast induced pyrexia in mice; experiment: Yeast induced pyrexia in mice; format: in vivo; conditions: for Temperature 1 h, Mean ± SEM / Temperature 2 h, Mean ± SEM / Temperature 3 h, Mean ± SEM: 20 mg/kg p.o.; for Temperature 1 h, Mean ± SEM: 1 h after drug administration; for Temperature 2 h, Mean ± SEM: 2 h after drug administration; for Temperature 3 h, Mean ± SEM: 3 h after drug administration; for Temperature After 24 h of Induction, Mean ± SEM: rectal temperature after yeast, before drug; for Temperature before Induction, Mean ± SEM: rectal temperature, baseline before yeast
Description: Antipyretic activity of prodrugs 5a–c was evaluated against yeast induced pyrexia in mice according to Sakande et al., reported method. Aqueous suspension of brewer′s yeast (20% in distilled water) […] was given subcutaneous to mice. […] Only, those animals were further used in which the pyrexia had been induced. The animals were divided in to five groups having five mice in each group. […] Then animals were treated as described earlier with control, standard and prodrugs 5a–c. Rectal temperature of animals was recorded at 1, 2, 3 and 4 h after drug administration.

[6] = system: gastrointestinal mucosa (stomach); experiment: Ulcerogenic studies, fasted rat model; format: in vivo; conditions: 20 mg/kg p.o., 4 h after dose, UI = area of ulcer/area of stomach × 100
Description: The animals were categorized into 6 groups, each has 5 animals. Group 1 was control and given 0.5% carboxymethyl cellulose (CMC) suspension. […] The prodrugs 5a–c (20 mg/kg p.o.) were given to Groups III–V, respectively. Food and water was removed from animal cages 24 h before starting the experiments. After 4 h administration of dose, the animal′s stomach was removed by sacrificing the animal. Stomach was kept on saline soaked filter paper for inspection. The stomach was opened along larger curvature and cleaned with distilled water. The mucous was removed and the area of ulcers and stomachs were noted.
Following formula was used for calculation of Ulcer index (UI); (2) UI=Area of Ulcer/Area of Stomach×100

[7] = system: platelet aggregation of rat platelet rich plasma induced by ADP or collagen; experiment: Ex vivo antiplatelet aggregation activity; format: in vivo, Sprague-Dawley (SD) rats; conditions: 100 mg/kg orally, blood 90 min after dosing, ADP 1.3 µmol/L or collagen 32.8 µg/mL; ASA 50 mg/kg positive control
Description: The antiplatelet activity of synthesized mutual prodrugs 5a–c was investigated by following the already reported method with some modifications. Male Sprague-Dawley (SD) rats weighing 320–350 g were used after overnight fasting. Rats were orally administered via gastric tube 100 mg/kg of prodrugs solution or 50 mg/kg of acetyl salicylic acid (ASA) suspended in 0.5% carboxymethyl cellulose (CMC) solution. Blood was collected 90 min after sample administration and platelet-rich plasma (PRP) was prepared by centrifugation of blood at 120× g for 15 min and further centrifuged at 850× g for 15 min to prepare platelet-poor plasma (PPP). Platelet aggregation was induced by 32.8 µg/mL of collagen or 1.3 µmol/L of adenosine diphosphate (ADP) in 300 µL of PRP. The PRP (300 µL) was incubated at 37 °C for 2 min in the aggregometer with stirring at 1000 rpm and then stimulated with ADP, collagen, epinephrine and A23187. The changes in light transmission were recorded for 5 min after stimulation. The synthesized mutual prodrugs 5a–c were added to the platelet suspension 3 min before the addition of the aggregating agents. The extent of inhibition of platelet aggregation is expressed as percent inhibition (X) using the following formula: (3) X=((A−B)/A)×100 where A = maximal aggregation of the control; and B = maximal aggregation of sample-treated PRP.

Compound | Inflammation at 1 h (paw thickness), Mean ± SEM [1] [mm] | Percent inhibition of paw edema at 1 h [1] [%] | Inflammation at 2 h (paw thickness), Mean ± SEM [1] [mm] | Percent inhibition of paw edema at 2 h [1] [%] | Inflammation at 3 h (paw thickness), Mean ± SEM [1] [mm] | Percent inhibition of paw edema at 3 h [1] [%] | Inflammation at 4 h (paw thickness), Mean ± SEM [1] [mm] | Percent inhibition of paw edema at 4 h [1] [%] | No. of Writhing, Mean ± SEM [3] | Percentage inhibition of writhing [3] [%] | Lickings Time, Mean ± SEM [4] | Percentage inhibition of licking time [4] [%] | Temperature 1 h, Mean ± SEM [5] | Temperature 2 h, Mean ± SEM [5] [°F] | Temperature 3 h, Mean ± SEM [5] | Temperature After 24 h of Induction, Mean ± SEM [5] [°F] | Temperature before Induction, Mean ± SEM [5] [°F] | also measured
CC(C)Cc1ccc([C@H](C)C(=O)OCC(=O)Oc2ccc3ccc(=O)oc3c2)cc1 [5c, (S)-((2-oxo-2H-chromen-7-yloxy)carbonyl) methyl 2-(4-isobutylphenyl) propanoate] | 4.22 ± 0.04 | 4.09 | 4.05 ± 0.02 | 12.14 | 3.80 ± 0.04 | 21.64 | 3.60 ± 0.04 | 28.99 | 18.25 ± 0.85 | 50.94 | 1.31 ± 0.07 | 53.71 | 98.35 ± 0.05 °F | 97.65 ± 0.15 | 97.25 ± 0.08 ^ns °F | 102.1 ± 0.96 | 98.95 ± 0.04 | Inflammation at 0 h (paw thickness), Mean ± SEM ([1]; 0 h after carrageenan): 4.32 ± 0.04 mm; Inflammation at 0 h (paw thickness), Mean ± SEM ([2]; 0 h after egg albumin): 4.60 ± 0.33 mm; Inflammation at 1 h (paw thickness), Mean ± SEM ([2]; 1 h after egg albumin): 3.12 ± 0.06 mm; Percent inhibition of paw edema at 1 h ([2]; 1 h after egg albumin, vs control): 29.09%; Inflammation at 2 h (paw thickness), Mean ± SEM ([2]; 2 h after egg albumin): 3.02 ± 0.06 mm; Percent inhibition of paw edema at 2 h ([2]; 2 h after egg albumin, vs control): 37.08%; Inflammation at 3 h (paw thickness), Mean ± SEM ([2]; 3 h after egg albumin): 2.92 ± 0.07 mm; Percent inhibition of paw edema at 3 h ([2]; 3 h after egg albumin, vs control): 44.06%; Ulcer Index (Mean±SEM) [6]: 1.61 ± 0.58; Inhibition of platelet aggregation [7]: most potent inhibitory effects
CC(C)Cc1ccc([C@H](C)C(=O)O)cc1 [Dexibuprofen, S-(+)-ibuprofen, reference compound] | 4.35 ± 0.06 | 1.1 | 4.07 ± 0.02 | 11.71 | 3.90 ± 0.04 | 19.58 | 3.75 ± 0.06 | 26.03 | 17.06 ± 1.08 | 54.12 | 1.60 ± 0.22 | 43.46 | 95.25 ± 0.37 ^ns °F | 95.02 ± 0.35 | 94.97 ± 0.31 °F | 95.77 ± 0.26 | 95.20 ± 0.21 | –
